Experimental data taken from patent US20200222400A1, “METHODS FOR THE TREATMENT OF NEUROLOGICAL DISORDERS” (Yumanity Therapeutics, Inc., priority 2019, published 2020).

Legend:
[1] = target: T1, yeast OLE1 (Saccharomyces cerevisiae, UniProt P21147); assay: Growth of yeast surviving solely on yeast OLE1; type: cell-based; settings: percent of DMSO-treated condition
T1 construct: expressed in transfected cells; host or cells: S. cerevisiae ole1Δ strain (W303 pdr1Δ pdr3Δ background), pRS316 plasmid, TDH3 promoter
T1 sequence (P21147 1-510): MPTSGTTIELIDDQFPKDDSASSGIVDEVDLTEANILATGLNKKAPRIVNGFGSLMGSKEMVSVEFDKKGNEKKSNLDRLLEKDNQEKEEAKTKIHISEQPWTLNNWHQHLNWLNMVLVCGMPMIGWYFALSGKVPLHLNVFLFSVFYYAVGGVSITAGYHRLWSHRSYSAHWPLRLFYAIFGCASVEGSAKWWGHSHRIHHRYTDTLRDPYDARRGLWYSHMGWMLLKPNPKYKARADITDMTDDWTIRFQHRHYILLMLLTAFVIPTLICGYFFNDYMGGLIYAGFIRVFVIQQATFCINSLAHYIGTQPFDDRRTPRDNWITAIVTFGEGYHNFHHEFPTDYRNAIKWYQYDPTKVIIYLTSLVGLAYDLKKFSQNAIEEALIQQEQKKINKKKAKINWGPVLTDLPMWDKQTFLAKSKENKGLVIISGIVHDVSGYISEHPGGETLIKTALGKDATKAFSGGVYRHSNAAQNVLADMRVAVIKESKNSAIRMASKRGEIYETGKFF
Description: To generate yeast strains expressing SCD1 or SCD5 as the sole desaturase, the human SCD1 and SCD5 genes were cloned from cDNAs (Harvard PlasmID database Clone ID HsCD00340237 for SCD1 and HsCD00342695 for SCD5) into yeast plasmid pRS316 (ATCC 77145) between the yeast TDH3 promoter and the CYC1 terminator. The coding sequence of yeast OLE1 was also cloned into this plasmid). These clones were then transformed into the ole1Δ strain and plated on CSM-Ura media (CSM lacking uracil) with 2% glucose (w/v) and independent colonies were isolated and amplified.
All compound profiling experiments were performed using the same basic protocol. Different genetic backgrounds (e.g., gene deletions) or conditions (e.g., addition of oleic and palmitoleic acid) were replaced as indicated below.
Compound stocks (10 mM in 100% DMSO) were arrayed into 384 round well, v-bottom polypropylene plates and diluted according to indicated dilution factors. Compound administration was performed in two separate steps. First, 15 μL of CSM-Galactose (induces expression of toxic protein) was dispensed into clear 384 well assay plates using a MULTIDROP™ Combi reagent dispenser. The diluted compound stock plates were then applied to the assay plates using an automated workstation (Perkin Elmer JANUS™) outfitted with a 384 pin tool containing slotted pins that deliver 100 nL of compound. The cultures described above were then diluted to a 2× concentration (0.03 and 0.08 for alpha-synuclein and ApoE, final OD600 of 0.015 and 0.04) in CSM-Galactose. For wild-type and Ole1/SCD1/SCD5 plasmid-containing strains, the 2× cell density was 0.02. In all experiments, 15 μL culture was then dispensed into the pinned assay plate to achieve 30 μL of the 1×OD600 culture and a top drug concentration of […]. For 96-well assays (FIGS. 2A and 2B), compound dilutions in DMSO were generated in 96 well plates and 1 μL was manually pipetted into 96 well clear bottom assay plates.
For experiments using a plasmid-borne copy of Ole1, SCD1, or SCD5 (FIGS. 4B, 7, and 8), media lacking uracil (SX-Ura, where X is glucose, raffinose, or galactose), was used for all steps of the compound profiling protocol to ensure its maintenance throughout the assay.
After yeast delivery, assay plates were incubated under humidified conditions at 30° C. for 24 to 40 h. ApoE4 rescue experiments were stopped at 24 h, aSyn experiments at 40 h, Ole1 at 24 h, and SCD1/SCD5 at 40 h. The growth of yeast was monitored by reading the OD600 of each well using a microplate reader (Perkin Elmer EnVision™). For model rescue experiments, raw data were processed by background subtracting and calculating a fold-change relative to DMSO control [(EXP−0.035)/(DMSO−0.035)—where 0.035 is the OD600 contributed by an empty well containing 30 μL of media alone]. For growth inhibition of wild-type cells, raw data were processed by background subtracting and converting values to a percent of the nontreated condition for that strain [(EXP−0.035)/(DMSO−0.035)×100%].

[2] = system: human iPSC-derived neurons harboring the alpha-synuclein A53T mutation; assay: Neuron survival assay, iPSC-derived neurons harboring alpha-synuclein A53T mutation; type: cell-based; settings: 100 nM and 30 nM, relative to DMSO in A53T neurons
Method: Human control and patient-derived trans-differentiated neurons were transfected with an RFP reporter driven by the human MAP2 promoter (MAP2-mApple) following the protocol for rat primary neurons as described above with the following exceptions: lipofection was carried out for approximately 1 h, and the final media replacement was with BrainPhys™ media supplemented with BDNF, GNDF, cAMP, ascorbic acid, and laminin.
Transfected neuronal cultures were imaged at 12-24 h intervals for the indicated number of days by robotic microscopy. Fluorescence images were acquired with a Nikon Eclipse Ti microscope equipped with a motorized stage, 20× extra-long working distance (ELWD) objective, and an Andor Zyla cMOS camera. During image acquisition, microplates were enclosed in an on-stage environmental chamber controlling temperature, CO2, and humidity (Okolab). Images were processed and analyzed with custom-made scripts in R and ImageJ software. The lifetimes of individual neurons were determined by tracking fluorescently-labeled neurons in ImageJ. Neuronal death was determined to occur upon incidence of RFP signal loss or rupture of cell body. Cox proportional hazards analysis was used to generate cumulative hazard plots and determine the risk of neuron death. Log-rank test was used to determine statistical significance of survival curve divergence between neuron cohorts.

Cc1nnc(-c2ccc(N3CCC(Oc4cc(F)ccc4Cl)CC3)nn2)o1 [CAY10566]
growth inhibition of yeast expressing OLE1 [1]: resistant
risk of neuron death [2]: significantly reduced
